In brackets after ≈: the same amount, converted by molar mass.
What was measured:
ribosome = experiment: Toeprinting analysis (primer extension inhibition) in cell-free translation, ermBL and ermDL templates; type: biochemical; details: 50 μM
Experimental: Toeprinting analysis: The ermBL DNA template for toeprinting was generated by a 4-primer cross-over PCR using primers T7, NV1, ermB3-F and ermB3-R. The ermDL template was generated in the same way using primers RLR-fwd, RLR-rev, T7-SD-fwd and T7-SD-rev. In vitro translation in the PURExpress system (New England Biolabs) and toeprinting analysis were carried out as described previously. […]
Primer sequences used for toeprinting are as follows: T7 (TAATACGACTCACTATAGGG); NV1 (GGTTATAATGAATTTTGCTTATTAAC); ermB3-F (TAATACGACTCACTATAGGGCTTAAGTATAAGGAGGAAAAAATATGTTGGTATTCCAAATGCGTAATGTAGATAAAACATCTAC); ermB3-R (GGTTATAATGAATTTTGCTTATTAACGATAGAATTCTATCACTTATTTCAAAATAGTAGATGTTTTATCTACATTACG); RLR-fwd (GGAGGAAAAAATATGACACACTCAATGAGACTTCGTATTTTCCC); RLR-rev (CTATCACTTACAAAGTTGGGAAAATACGAAGTCTCATTGAG); T7-SD-fwd (TAATACGACTCACTATAGGGCTTAAGTATAAGGAGGAAAAAATATGACACACTCAATG); T7-SD-rev (GGTTATAATGAATTTTGCTTATTAACGATAGAATTCTATCACTTACAAAGTTGGGAAAAT).

HepG2 = experiment: Mitochondrial ToxGlo assay; type: cell-based, human
Experimental: Mammalian cell experiments: All compounds were dissolved in sterile DMSO to a stock concentration of 20 μM and aliquoted prior to freezing at −20° C. Aliquots were limited to a maximum of 3 freeze-thaw cycles. A549 (human pulmonary carcinoma; […]) cells were cultured in Dulbecco's Modified Eagle Medium (DMEM) supplemented with 10% fetal bovine serum. K562 (human chronic myelogenous leukemia; […]) cells were cultured in Iscove's Modification of DMEM (IMDM) media supplemented with 10% fetal bovine serum. HCT116 (human colorectal carcinoma; […]) cells were cultured in McCoy's 5a (Iwakata & Grace Modification) media supplemented with 10% fetal bovine serum. HepG2 (human hepatocellular carcinoma; […]) cells were cultured in Eagle's Minimum Essential Medium (EMEM) supplemented with 10% fetal bovine serum. All cell cultures were maintained in a 5% CO2 incubator at 37° C.
Mitochondrial toxicity assays were conducted using the Promega Mitochondrial ToxGlo assay, pursuant to the manufacturer's protocol.

E. coli MP-9 ΔTolC = experiment: MIC (broth microdilution or agar dilution, CLSI); type: cell-based; details: Escherichia coli
Procedure, shortened: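 Per CLSI, MICs by broth microdilution or agar dilution; strains other than streptococci and anaerobes were sub-cultured overnight at 35° C on blood agar, with a final broth inoculum of 5×10^5 CFU/mL.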

SMILES: CSC1O[C@H]([C@H](NC(=O)[C@H]2NC[C@@H]3C[C@H](CC(C)C)CCO[C@H]32)[C@H](C)Cl)C(O)[C@@H](O)[C@H]1O (stereo partly shown) [FSA-513018b]
- translation arrest at the start codons of model ORFs (toeprinting) (ribosome): firmly locked the ribosome at the start codons, allowing virtually no escape
- effect on membrane integrity (HepG2; HepG2, Mitochondrial ToxGlo): no effect
- effect on mitochondrial function (HepG2; HepG2, Mitochondrial ToxGlo (ATP production)): no effect
- MIC (E. coli MP-9 ΔTolC): 0.5 µg/mL (≈ 1.01 µM)

— US20230203081A1, “LINCOSAMIDE ANTIBIOTICS AND USES THEREOF” (President and Fellows of Harvard College, priority 2020, published 2023)
